The results in this text go back to ChEMBL document CHEMBL1130586 (Bioorg Med Chem Lett, 1998).

Test [1] addresses Histamine H1 receptor (Cavia porcellus) (UniProt P31389). Put plainly: Partial agonist activity with mepyramine against Histamine H1 receptor in guinea pig ileum. Type of test: functional, tissue-based.
The target is the same in test [2]. Put plainly: Partial agonist activity against Histamine H1 receptor in guinea pig aorta. It counts as functional, tissue-based.
The target is the same in test [3]. Put plainly: Compound was tested for its […] in the presence of mepyramine (1-1000 nM) against Histamine H1 receptor of guinea pig aorta. It counts as functional.
Test [4] has the same target. Put plainly: Partial agonist activity against Histamine H1 receptor in guinea pig ileum. It counts as functional, tissue-based.
Test [5] shares this target. Put plainly: Relative potency against Histamine H1 receptor in guinea pig ileum. It counts as functional, tissue-based.
Test [6] addresses T1, Histamine H1 receptor (Cavia porcellus, UniProt P31389). Put plainly: Compound was tested for the contractile effects antagonized by mepyramine (1-1000 nM) against Histamine H1 receptor of guinea pig aorta. The following applies: read-out: pA2 (converted). It counts as functional.
Test [7] deals with Histamine H1 receptor (Cavia porcellus) (UniProt P31389). Put plainly: Compound was tested for binding affinity against guinea pig ileum. It counts as tissue-based.
The target is the same in test [8]. Put plainly: Relative potency against Histamine H1 receptor of guinea pig aorta. Type of test: functional, tissue-based.
The next test deals with Histamine H3 receptor (Cavia porcellus, UniProt Q9JI35). Put plainly: Compound was tested for the agonist activity against histamine H3 receptor of guinea pig ileum. Type of test: functional, tissue-based. The following applies: read-out: pA2 (converted).
In test [9] the target is Histamine H2 receptor (Cavia porcellus) (UniProt P47747). Put plainly: Compound was tested for agonist activity against histamine H2 receptor of guinea pig atrium. The following applies: Cardiac atrium. Type of test: functional, tissue-based.
Test [10] deals with T1, Histamine H1 receptor. Put plainly: Contractile effects antagonized by mepyramine (0.3-100 nM) against Histamine H1 receptor in guinea pig ileum. It counts as functional, tissue-based. The following applies: read-out: pA2 (converted).
Test [11] deals with Muscarinic acetylcholine receptor M3 (Cavia porcellus, UniProt Q8VH26). Put plainly: Compound was tested for its agonist activity against M3-acetylcholine receptor of guinea pig ileum. It counts as functional, tissue-based. The following applies: read-out: pA2 (converted).
For test [12], the target named is Histamine H1 receptor (Cavia porcellus) (UniProt P31389). Put plainly: Compound was tested for its partial agonist activity in the presence of 10 nM mepyramine against Histamine H1 receptor in guinea pig ileum. It counts as functional, tissue-based.
Test [13] shares this target. Put plainly: Compound was tested for its partial agonist activity in the presence of 100 nM mepyramine against Histamine H1 receptor in guinea pig ileum. Type of test: functional, tissue-based.
Test [14] has the same target. Put plainly: Compound was tested for its partial agonist activity in the presence of 1 nM mepyramine against Histamine H1 receptor in guinea pig ileum. Type of test: functional, tissue-based.

Sequence of Histamine H1 receptor (Cavia porcellus) (P31389 whole entry): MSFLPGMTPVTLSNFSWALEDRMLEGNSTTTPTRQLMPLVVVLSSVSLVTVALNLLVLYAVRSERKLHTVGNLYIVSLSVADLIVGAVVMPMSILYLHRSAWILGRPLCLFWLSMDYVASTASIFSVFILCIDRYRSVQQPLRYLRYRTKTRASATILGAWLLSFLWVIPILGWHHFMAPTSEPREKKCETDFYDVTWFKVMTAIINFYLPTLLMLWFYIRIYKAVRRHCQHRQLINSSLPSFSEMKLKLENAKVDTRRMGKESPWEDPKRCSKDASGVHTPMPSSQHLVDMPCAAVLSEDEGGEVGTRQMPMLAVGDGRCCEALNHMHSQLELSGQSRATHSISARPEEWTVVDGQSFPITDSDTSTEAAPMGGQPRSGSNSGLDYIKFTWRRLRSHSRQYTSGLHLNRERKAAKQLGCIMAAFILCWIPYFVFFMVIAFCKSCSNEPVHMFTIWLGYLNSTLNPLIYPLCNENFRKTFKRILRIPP
T1 sequence (P31389 whole entry): as above
Sequence of Histamine H3 receptor (Q9JI35 whole entry): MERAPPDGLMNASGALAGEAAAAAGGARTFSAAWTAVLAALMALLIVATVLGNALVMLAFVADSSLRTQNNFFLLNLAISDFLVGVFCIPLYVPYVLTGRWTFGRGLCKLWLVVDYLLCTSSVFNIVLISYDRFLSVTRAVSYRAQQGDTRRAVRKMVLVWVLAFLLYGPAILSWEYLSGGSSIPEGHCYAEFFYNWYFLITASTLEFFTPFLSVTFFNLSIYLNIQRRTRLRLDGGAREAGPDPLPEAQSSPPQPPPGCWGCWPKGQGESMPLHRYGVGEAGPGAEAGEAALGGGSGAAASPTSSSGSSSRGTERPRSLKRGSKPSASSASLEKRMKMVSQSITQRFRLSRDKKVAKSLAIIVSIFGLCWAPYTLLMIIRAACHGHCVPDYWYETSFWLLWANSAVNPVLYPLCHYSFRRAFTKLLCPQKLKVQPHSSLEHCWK
Sequence of Muscarinic acetylcholine receptor M3 (Q8VH26 whole entry): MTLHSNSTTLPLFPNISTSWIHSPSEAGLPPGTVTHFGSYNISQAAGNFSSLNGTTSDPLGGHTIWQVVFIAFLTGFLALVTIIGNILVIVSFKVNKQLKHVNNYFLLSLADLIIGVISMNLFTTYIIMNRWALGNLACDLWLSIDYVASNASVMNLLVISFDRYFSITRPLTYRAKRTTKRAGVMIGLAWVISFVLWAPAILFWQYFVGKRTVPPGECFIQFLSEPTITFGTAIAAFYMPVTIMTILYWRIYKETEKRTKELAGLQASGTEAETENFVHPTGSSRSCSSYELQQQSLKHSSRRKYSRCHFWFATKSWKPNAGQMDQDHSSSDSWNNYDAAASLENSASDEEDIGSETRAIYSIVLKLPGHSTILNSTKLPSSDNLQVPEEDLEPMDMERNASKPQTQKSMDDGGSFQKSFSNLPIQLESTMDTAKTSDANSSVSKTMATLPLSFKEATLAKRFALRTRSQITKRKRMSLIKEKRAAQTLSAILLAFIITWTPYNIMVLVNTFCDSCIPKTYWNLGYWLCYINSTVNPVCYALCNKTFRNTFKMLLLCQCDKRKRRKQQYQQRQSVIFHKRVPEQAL
Sequence of Histamine H2 receptor (Cavia porcellus) (P47747 whole entry): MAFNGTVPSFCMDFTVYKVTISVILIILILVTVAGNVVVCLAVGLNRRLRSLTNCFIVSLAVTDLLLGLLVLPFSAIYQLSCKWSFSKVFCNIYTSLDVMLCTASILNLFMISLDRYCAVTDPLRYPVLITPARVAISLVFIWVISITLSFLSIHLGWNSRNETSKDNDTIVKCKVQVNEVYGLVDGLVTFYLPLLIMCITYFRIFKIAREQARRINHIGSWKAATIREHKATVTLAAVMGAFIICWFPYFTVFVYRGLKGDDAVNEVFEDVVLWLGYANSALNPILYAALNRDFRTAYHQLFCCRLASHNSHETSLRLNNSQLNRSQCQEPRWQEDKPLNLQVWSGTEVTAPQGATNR

On to `NCCc1c[nH]cn1`, for which the Emax in test [1], in [2], in test [3] and in [4] was 100% throughout.

For the compound `CN(C)CCc1c[nH]c(-c2cccc(Br)c2)n1`, the Emax is 58% in [1], 58% in [2], 49% in [3] and 81% in test [4]. The values for the Relative potency in [5] and in test [8] were 87% and 31%, respectively. Further, the Kb on Histamine H1 receptor [6] was 1.15 nM; on Histamine H3 receptor it was 1.45 µM; at Histamine H1 receptor [10], 0.708 nM; in [11], 64.6 µM. The pKp in test [7] amounted to 6.2. This compound gave a pD2 in test [9] of 4.74.

With `NCCc1c[nH]c(-c2cccc(C(F)(F)F)c2)n1`, the Relative potency in test [5] stood at 128%; in test [8] it was 94%. In [7], this compound registered a pKp of 6.23. Further, the Emax is 80% in test [12]; 80% in test [2]; 65% in test [13]; 97% in [14]; 100% in test [4]. The compound also had a pD2 in test [9] of 3.48.

Regarding `CNCCc1c[nH]c(-c2cccc(Br)c2)n1`, the Emax in [1] is 71%; in test [2], 76%; in test [3], 75%; in test [4], 95%. The Relative potency amounted to 109% in test [5] and 43% in test [8]. Further, the Kb at Histamine H1 receptor [6] is 0.977 nM; on Histamine H3 receptor, 11.7 µM; on Histamine H1 receptor [10], 0.741 nM; in test [11], 112 µM. Also, the pKp in test [7] is 6.17. For the same compound, the pD2 in test [9] worked out at 3.86.

Turning to `NCCc1cnc(-c2cccc(C(F)(F)F)c2)[nH]1`, the Kb on Histamine H1 receptor [6] was 0.977 nM; on Histamine H3 receptor, 6.17 µM; on Histamine H1 receptor [10], 0.891 nM; in test [11] it was 107 µM.

Turning to `NCCc1c[nH]c(-c2cccc(Br)c2)n1`, the Kb on Histamine H1 receptor [6] is 1.26 nM; on Histamine H3 receptor it was 6.31 µM; on Histamine H1 receptor [10], 0.741 nM; in [11], 155 µM. The same compound returned a pKp in test [7] of 5.97. The Emax in test [2] is 64%; in [4], 100%.

On to `FC(F)(F)c1cccc(-c2nc(CCNC3CC3)c[nH]2)c1`, for which the results for the Emax in test [1] and in test [4] were 20% and 36%, respectively. The Relative potency in test [5] worked out at 28%. For the same compound, the pKp in test [7] came to 6.12. This compound also gave a pD2 in test [9] of 4.36. In addition, at Histamine H1 receptor [10], the Kb is 0.741 nM.

In the case of `CCNCCc1c[nH]c(-c2cccc(C(F)(F)F)c2)n1`, the Emax in test [1] is 40%; in test [4], 63%. The compound also returned a Relative potency in test [5] of 30%. In test [7], the pKp was determined as 5.68. Moreover, the Kb at Histamine H3 receptor was 2.34 µM; on Histamine H1 receptor [10], 1.05 nM; in [11] it was 69.2 µM. This compound showed a pD2 in [9] of 4.55.

On to `CN(C)CCc1c[nH]c(-c2cccc(C(F)(F)F)c2)n1`, for which the Emax in test [1] was found to be 67%; in test [2], 54%; in test [3], 64%; in [4], 88%. The Relative potency in test [5] came out at 95%; in test [8] it was 169%. Besides, the Kb is 1.41 nM on Histamine H1 receptor [6], 1.12 µM at Histamine H3 receptor, 1.2 nM on Histamine H1 receptor [10] and 26.9 µM in test [11]. The pKp in test [7] stood at 6.39. The same compound registered a pD2 in test [9] of 4.56.

On to `CNCCc1c[nH]c(-c2cccc(C(F)(F)F)c2)n1`, for which the Emax in [1] is 77%; in test [2] it was 59%; in [3], 66%; in [4], 97%. Besides, the Relative potency in test [5] is 174%; in [8], 217%. In addition, the Kb at Histamine H1 receptor [6] was 0.832 nM; on Histamine H3 receptor, 4.37 µM; on Histamine H1 receptor [10] it was 0.912 nM; in test [11], 115 µM. Also, in test [7], the pKp is 6.47. The compound also gave a pD2 in [9] of 4.04.

For orientation: Emax means the greatest response seen or fitted, relative to the assay's reference.
